Source: patent US20140271765A1 (priority 2013, published 2014)
“And” between values parts separate entries of the source, which are not always exact repeats. Identical values can stand only once. Like-named read-outs stand apart in the source and are kept apart here.

Tests used:
[1] = human, in vivo
[2] = buprenorphine
[3] = in vivo
[4] = dog, in vivo
[5] = 2 implants, individual subjects

CO[C@@]12CC[C@@]3(C[C@@H]1[C@](C)(O)C(C)(C)C)[C@H]1Cc4ccc(O)c5c4[C@@]3(CCN1CC1CC1)[C@H]2O5 [buprenorphine]
duration of plateau of therapeutically-effective plasma level [1]: at least 24 weeks | time until plasma concentration reaches a plateau [1]: about a few days to about two weeks | Model predicted concentration at removal ([2]; 2 implants, Mean): 330.7 pg/mL | Time from implant to reaching 2x last concentration ([2]; 2 implants, Mean): 242.0 h | α-Half Life ([2]; 2 implants, Mean): 12.75 h | β-Half Life ([2]; 2 implants, Mean): 133.1 h | γ-Half life ([2]; 2 implants, Mean): 160.7 weeks | Model predicted concentration at removal ([2]; 2 implants, Median): 340.0 pg/mL | Time from implant to reaching 2x last concentration ([2]; 2 implants, Median): 231.0 h | α-Half Life ([2]; 2 implants, Median): 7.55 h | β-Half Life ([2]; 2 implants, Median): 124.0 h | γ-Half life ([2]; 2 implants, Median): 77.9 weeks | Model predicted concentration at removal [2, 5]: 263 pg/mL and 342 pg/mL (2×) and 252 pg/mL and 447 pg/mL and 338 pg/mL | Time from implant to reaching 2x last concentration [2, 5]: 396 h and 259 h and 313 h and 180 h and 101 h and 203 h | α-Half Life [2, 5]: 7.55 h and 4.17 h and 115 h and 39.7 h and 2.94 h and 9.41 h | β-Half Life [2, 5]: 124 h and 206 h and 3578 h and 174 h and 52.3 h and 109 h | γ-Half life [2, 5]: 29.9 weeks and 457 weeks and 35.7 weeks and 120 weeks | Model predicted concentration at removal ([2]; 4 implants, Mean): 6.11 pg/mL | Time from implant to reaching 2x last concentration ([2]; 4 implants, Mean): 715.7 h | α-Half Life ([2]; 4 implants, Mean): 3230 h | β-Half Life ([2]; 4 implants, Mean): 15.95 h | Model predicted concentration at removal ([2]; 4 implants, Median): 5.76 pg/mL | Time from implant to reaching 2x last concentration ([2]; 4 implants, Median): 706.5 h | α-Half Life ([2]; 4 implants, Median): 3020 h | β-Half Life ([2]; 4 implants, Median): 15.75 h | shortest half-life during the plateau phase ([3]; human): 25 weeks | Cave from Day 21 to removal, higher in the higher dose group as compared with the lower dose group [3]: 93% | Cmax, higher in the higher dose group as compared with the lower dose group [3]: 62% | reduction in buprenorphine concentrations from Day 17 to removal [3]: ≤ 50% | time to reach plateau phase [3]: ≤ 21 days | changes in plasma buprenorphine exposure with external heat [4]: No consistent changes | mean steady state concentration (Css1) [4]: 3.90 ng/mL | mean steady-state concentration (Css3) [4]: 3.86 ng/mL | mean steady-state plasma buprenorphine concentration (Css2) [4]: 4.37 ng/mL | steady state concentration (Css1), range [4]: 3.01 to 4.77 ng/mL | steady-state concentration (Css3), range [4]: 2.73 to 4.84 ng/mL | steady-state plasma buprenorphine concentration (Css2), range [4]: 2.61 to 5.42 ng/mL
